Among the data in ChEMBL document CHEMBL3882728, “Amino-substituted quinazoline derivatives as inhibitors of Beta-catenin/TCF-4 pathway and cancer treatment agents” (2009) are IC50 values, retold here.

Bounds are passed on as bounds.

As a reminder, the IC50 is the concentration at which inhibition is half-maximal.

The nature of the assay: Cytotoxicity against human SV5A8 cells expressing SV40 binding sites driving firefly/renilla luciferase reporter gene after 24 hrs by luminometer. The following applies: SV5A8, 24 h. Format: cell-based. (In general: Reporter assays use an easily measured gene product as a stand-in for the process of interest.)
`CNc1nc(NCc2ccc(NC(=O)c3ccc(Cl)cc3F)cc2)c2cc(C)ccc2n1` had an IC50 of more than 2.78 µM.

As to `Cc1ccc2nc(N(C)C)nc(NCc3ccc(NC(=O)c4ccc(F)cc4)cc3)c2c1`, the IC50 was 5.82 to 11.6 µM.

In the case of `Cc1cc(C)c2nc(N3CCN[C@@H](C)C3)nc(NCc3ccc(NC(=O)c4ccc(F)cc4)cc3)c2c1`, the IC50 is more than 5.01 µM.

In turn, `CNc1nc(NCc2ccc(NC(=O)c3cccnc3)cc2)c2cc([N+](=O)[O-])ccc2n1` came in with an IC50 of more than 23.3 µM.

For `Cc1ccc2c(NCc3ccc(NC(=O)C4CCN(Cc5ccccc5)CC4)cc3)nc(N3CCC3)nc2c1`, the 50% inhibitory concentration (IC50) fell in the range of 9.6 to 17.3 µM.

As for `CNc1nc(NCc2ccc(NC(=O)c3ccc(Cl)nc3)cc2)c2cccc(C)c2n1`, the IC50 fell in the range of 2.89 to 21.6 µM.
